Experimental findings from US20240285785A1, “TARGETING SORTILIN” (priority 2022, published 2024) are described below.

The first data set in a line: Murine serum stability assay. Type of data set: in vitro ADME, mouse (CD-1). The conditions noted are these: male CD-1 mouse serum, 37° C.; listed as Aro-SAR-Q15. The procedure: Serum was drawn from male CD-1 mice by Pharmidex. Lyophilized peptides were solubilized in DMSO and then further diluted into male mouse (CD-1) serum at 37° C. in duplicates. The reaction was incubated at 37° C. and samples extracted at 6 time points: 0, 0.16, 0.5, 1, 3, and 6 hrs. Acetonitrile (ACN) with internal standard (tolbutamide) was added to stop the incubation. Samples were centrifuged, and the supernatant was analyzed by HPLC-MS/MS for the parent compound.
Consider `CC(C)C[C@H](NC(=O)[C@H](C)NC(=O)[C@@H]1CCCN1C(=O)[C@H](CC(=O)O)NC(=O)[C@H](CCCNC(=N)N)NC(=O)[C@H](CC(C)C)NC(=O)[C@@H]1CCCN1C(=O)[C@H](C)NC(=O)[C@H](CC(=O)O)NC(=O)[C@H](Cc1c[nH]c2ccccc12)NC(=O)[C@H](CCCNC(=N)N)NC(=O)[C@@H]1CCCN1C(=O)[C@H](C)N)C(=O)N[C@@H](CCCNC(=N)N)C(=O)N[C@@H](CCC(N)=O)C(=O)N[C@H](C(=O)N[C@@H](CC1CCC1)C(=O)O)C(C)(C)C` [Arb-SAR-Q15], for which the “Murine serum stability assay, T1/2” value is recorded as 18.92 min.

The same data set, now with this note: male, CD-1, mouse, mouse serum, male CD-1 mouse serum, 37° C.; read-out: Murine serum stability assay, T1/2.
Regarding `CCCC[C@@H]1NC(=O)[C@H](CCCNC(=N)N)NC(=O)[C@H](CC(C)C)NC(=O)[C@H](CO)NC(=O)[C@H](C(C)C)NC(=O)[C@@H](NC(=O)[C@H](CC(=O)O)NC(=O)[C@H](CCCNC(=N)N)NC(C)=O)CSSC[C@@H](C(=O)N[C@@H](CCCNC(=N)N)C(=O)N[C@@H](CCC(N)=O)C(=O)N[C@H](C(=O)N[C@@H](CC(C)(C)C)C(=O)O)C(C)(C)C)NC(=O)[C@H](C(C)C)NC(=O)[C@H](Cc2c[nH]cn2)NC1=O` [Arb_cyclic_G5, RDCVSLR(Nle)HVCRQ(B13)(F02)], the half-life stood at 95.2 min.

Consider `CC(C)C[C@H](NC(=O)[C@H](C)NC(=O)[C@@H]1CCCN1C(=O)[C@H](CC(=O)O)NC(=O)[C@H](CCCNC(=N)N)NC(=O)[C@H](CC(C)C)NC(=O)[C@@H]1CCCN1C(=O)[C@H](C)NC(=O)[C@H](CC(=O)O)NC(=O)[C@H](Cc1c[nH]c2ccccc12)NC(=O)[C@H](CCCNC(=N)N)NC(=O)[C@@H]1CCCN1C(=O)[C@H](C)N)C(=O)N[C@@H](CCCNC(=N)N)C(=O)N[C@@H](CCC(N)=O)C(=O)N[C@@H](Cc1ccccc1)C(=O)N[C@@H](CC(C)(C)C)C(=O)O` [Arb-SAR-P15], for which the half-life came out at 9.79 min.

Turning to `CCCC[C@@H]1NC(=O)[C@H](CCCNC(=N)N)NC(=O)[C@H](Cc2c[nH]cn2)NC(=O)[C@H]([C@@H](C)O)NC(=O)[C@H]([C@@H](C)O)NC(=O)[C@@H](NC(=O)[C@H](CO)NC(=O)[C@H](CCCNC(=N)N)NC(C)=O)CSSC[C@@H](C(=O)N[C@@H](CCCNC(=N)N)C(=O)N[C@@H](CCC(N)=O)C(=O)N[C@H](C(=O)N[C@@H](CC(C)(C)C)C(=O)O)C(C)(C)C)NC(=O)[C@H]([C@@H](C)O)NC(=O)[C@H](C)NC1=O` [Arb_cyclic_G14, RSCTTHR(Nle)ATCRQ(B13)(F02)], the half-life was determined as 50.9 min.

As to `CC(C)C[C@H](NC(=O)[C@H](C)NC(=O)[C@@H]1CCCN1C(=O)[C@H](CC(=O)O)NC(=O)[C@H](CCCNC(=N)N)NC(=O)[C@H](CC(C)C)NC(=O)[C@@H]1CCCN1C(=O)[C@H](C)NC(=O)[C@H](CC(=O)O)NC(=O)[C@H](Cc1c[nH]c2ccccc12)NC(=O)[C@H](CCCNC(=N)N)NC(=O)[C@@H]1CCCN1C(=O)[C@H](C)N)C(=O)N[C@@H](CCCNC(=N)N)C(=O)N[C@@H](CCC(N)=O)C(=O)N[C@@H](CC(C)C)C(=O)N[C@@H](CC(C)(C)C)C(=O)O` [Arb-SAR-J05], the half-life came to 10.1 min.

As to `CCCC[C@H](NC(=O)[C@H](CCCNC(=N)N)NC(C)=O)C(=O)N[C@H]1CSSC[C@@H](C(=O)N[C@@H](CCCNC(=N)N)C(=O)N[C@@H](CCC(N)=O)C(=O)N[C@H](C(=O)N[C@@H](CC(C)(C)C)C(=O)O)C(C)(C)C)NC(=O)[C@H](C)NC(=O)[C@@H]2CCCN2C(=O)[C@H](CO)NC(=O)[C@H](CCCNC(=N)N)NC(=O)[C@H]([C@@H](C)CC)NC(=O)[C@@H]2CCCN2C(=O)CNC1=O` [Arb_cyclic_G10], the half-life is 112 min.

Turning to `CC(=O)N[C@@H](Cc1c[nH]cn1)C(=O)N[C@@H](CC(N)=O)C(=O)N[C@@H](Cc1ccccc1)C(=O)N[C@@H](Cc1ccc(O)cc1)C(=O)N[C@H]1CSSC[C@@H](C(=O)N[C@@H](CCC(N)=O)C(=O)N[C@@H](CCCNC(=N)N)C(=O)N[C@@H](CCC(N)=O)C(=O)N[C@H](C(=O)N[C@@H](CC(C)(C)C)C(=O)O)C(C)(C)C)NC(=O)[C@H](Cc2c[nH]cn2)NC(=O)[C@H](CCCCN)NC(=O)[C@H](CCCNC(=N)N)NC1=O` [Arb_cyclic_C22], the half-life came out at 58.8 min.

Regarding `CC(C)C[C@H](NC(=O)[C@H](C)NC(=O)[C@@H]1CCCN1C(=O)[C@H](CC(=O)O)NC(=O)[C@H](CCCNC(=N)N)NC(=O)[C@H](CC(C)C)NC(=O)[C@@H]1CCCN1C(=O)[C@H](C)NC(=O)[C@H](CC(=O)O)NC(=O)[C@H](Cc1c[nH]c2ccccc12)NC(=O)[C@H](CCCNC(=N)N)NC(=O)[C@@H]1CCCN1C(=O)[C@H](C)N)C(=O)N[C@@H](CCCNC(=N)N)C(=O)N[C@@H](CCC(N)=O)C(=O)N[C@H](C(=O)N[C@@H](CC(C)(C)C)C(=O)O)C(C)(C)C` [Arb-SAR-P23], the half-life stood at 12.7 min.

On to `CC(=O)N[C@@H](CCCNC(=N)N)C(=O)N[C@@H](CC(=O)O)C(=O)N[C@H]1CSSC[C@@H](C(=O)N[C@@H](CCCNC(=N)N)C(=O)N[C@@H](CCC(N)=O)C(=O)N[C@H](C(=O)N[C@@H](CC(C)(C)C)C(=O)O)C(C)(C)C)NC(=O)[C@@H]2CCCN2C(=O)[C@@H]2CCCN2C(=O)[C@H](C)NC(=O)[C@H](CCCNC(=N)N)NC(=O)[C@H](CC(C)C)NC(=O)[C@H](CO)NC(=O)[C@H](C)NC1=O` [Arb_cyclic_G2], for which the half-life is 20.8 min.

`CC(=O)N[C@@H](CCCNC(=N)N)C(=O)N[C@@H](CC(=O)O)C(=O)N[C@H]1CSSC[C@@H](C(=O)N[C@@H](CCCNC(=N)N)C(=O)N[C@@H](CCC(N)=O)C(=O)N[C@H](C(=O)N[C@@H](CC(C)(C)C)C(=O)O)C(C)(C)C)NC(=O)[C@H](C(C)C)NC(=O)[C@H](CCCCN)NC(=O)[C@H](C)NC(=O)[C@H](CCCNC(=N)N)NC(=O)[C@H](CC(C)C)NC(=O)[C@H](CO)NC(=O)[C@@H]2CCCN2C1=O` [Arb_cyclic_G4]: the half-life worked out at 38.5 min.

Take `CC(C)C[C@H](NC(=O)[C@H](C)NC(=O)[C@@H]1CCCN1C(=O)[C@H](CC(=O)O)NC(=O)[C@H](CCCNC(=N)N)NC(=O)[C@H](CC(C)C)NC(=O)[C@@H]1CCCN1C(=O)[C@H](C)NC(=O)[C@H](CC(=O)O)NC(=O)[C@H](Cc1c[nH]c2ccccc12)NC(=O)[C@H](CCCNC(=N)N)NC(=O)[C@@H]1CCCN1C(=O)[C@H](C)N)C(=O)N[C@@H](CCCNC(=N)N)C(=O)N[C@@H](CCC(N)=O)C(=O)N[C@H](C(=O)N[C@@H](CC1CCC1)C(=O)O)C(C)(C)C` [Arb-SAR-Q15]: the half-life was 16.9 min.

Regarding `CC(C)C[C@H](NC(=O)[C@H](C)NC(=O)[C@@H]1CCCN1C(=O)[C@H](CC(=O)O)NC(=O)[C@H](CCCNC(=N)N)NC(=O)[C@H](CC(C)C)NC(=O)[C@@H]1CCCN1C(=O)[C@H](C)NC(=O)[C@H](CC(=O)O)NC(=O)[C@H](Cc1c[nH]c2ccccc12)NC(=O)[C@H](CCCNC(=N)N)NC(=O)[C@@H]1CCCN1C(=O)[C@H](C)N)C(=O)N[C@@H](CCCNC(=N)N)C(=O)N[C@@H](CCC(N)=O)C(=O)N[C@@H](CC1CCC1)C(=O)N[C@@H](CC(C)(C)C)C(=O)O` [Arb-SAR-P24], the half-life is 10.1 min.

In the case of `CCCC[C@@H]1NC(=O)[C@H](CCCNC(=N)N)NC(=O)[C@H](CCCNC(=N)N)NC(=O)[C@H](CC(N)=O)NC(=O)[C@H](CCC(=O)O)NC(=O)[C@@H](NC(=O)[C@H](Cc2c[nH]c3ccccc23)NC(=O)[C@H](CCCNC(=N)N)NC(C)=O)CSSC[C@@H](C(=O)N[C@@H](CCCNC(=N)N)C(=O)N[C@@H](CCC(N)=O)C(=O)N[C@H](C(=O)N[C@@H](CC(C)(C)C)C(=O)O)C(C)(C)C)NC(=O)[C@H]([C@@H](C)O)NC(=O)[C@H](Cc2ccccc2)NC1=O` [Arb_cyclic_G23, RWCENRR(Nle)FTCRQ(B13)(F02)], the half-life worked out at 38.1 min.

Turning to `CC[C@H](C)[C@@H]1NC(=O)[C@@H](NC(=O)CNC(=O)[C@H](CCCNC(=N)N)NC(C)=O)CSSC[C@@H](C(=O)N[C@@H](CCCNC(=N)N)C(=O)N[C@@H](CCC(N)=O)C(=O)N[C@H](C(=O)N[C@@H](CC(C)(C)C)C(=O)O)C(C)(C)C)NC(=O)[C@H](C)NC(=O)[C@H](CC(=O)O)NC(=O)[C@H](CCC(N)=O)NC(=O)[C@H](CCCNC(=N)N)NC(=O)[C@H](CCCNC(=N)N)NC(=O)[C@@H]2CCCN2C1=O` [Arb_cyclic_G7], the half-life worked out at 9.26 min.

Consider `CC(C)C[C@H](NC(=O)[C@H](C)NC(=O)[C@@H]1CCCN1C(=O)[C@H](CC(=O)O)NC(=O)[C@H](CCCNC(=N)N)NC(=O)[C@H](CC(C)C)NC(=O)[C@@H]1CCCN1C(=O)[C@H](C)NC(=O)[C@H](CC(=O)O)NC(=O)[C@H](Cc1c[nH]c2ccccc12)NC(=O)[C@H](CCCNC(=N)N)NC(=O)[C@@H]1CCCN1C(=O)[C@H](C)N)C(=O)N[C@@H](CCCNC(=N)N)C(=O)N[C@@H](CCC(N)=O)C(=O)N[C@@H](CC1CC1)C(=O)N[C@@H](CC1CCC1)C(=O)O` [Arb-SAR-Q13], for which the half-life is 14.1 min.

Regarding `CC(C)C[C@H](NC(=O)[C@H](C)NC(=O)[C@@H]1CCCN1C(=O)[C@H](CC(=O)O)NC(=O)[C@H](CCCNC(=N)N)NC(=O)[C@H](CC(C)C)NC(=O)[C@@H]1CCCN1C(=O)[C@H](C)NC(=O)[C@H](CC(=O)O)NC(=O)[C@H](Cc1c[nH]c2ccccc12)NC(=O)[C@H](CCCNC(=N)N)NC(=O)[C@@H]1CCCN1C(=O)[C@H](C)N)C(=O)N[C@@H](CCCNC(=N)N)C(=O)N[C@@H](CCC(N)=O)C(=O)N[C@@H](CC(C)(C)C)C(=O)N[C@@H](CC(C)(C)C)C(=O)O` [Arb-SAR-P22], the half-life turned out to be 9.96 min.

The same data set, now with this note: male, CD-1, mouse, serum, 37° C., read-out: Murine serum stability assay, T1/2.
For `CC(C)C[C@H](NC(=O)[C@H](CC(C)C)NC(=O)[C@H](CCC(N)=O)NC(=O)[C@H](CCCNC(=N)N)NC(=O)[C@H](CC(C)C)NC(=O)[C@H](C)NC(=O)[C@@H]1CCCN1C(=O)[C@H](Cc1ccccc1)NC(=O)[C@H](CCCNC(=N)N)NC(=O)[C@H](CC(C)C)NC(=O)[C@@H]1CCCN1C(=O)[C@H](C)NC(=O)[C@H](CC(=O)O)NC(=O)[C@H](Cc1c[nH]c2ccccc12)NC(=O)[C@H](CCCNC(=N)N)NC(=O)[C@@H]1CCCN1C(=O)[C@H](C)N)C(=O)O` [Arb-SAR-C14], the half-life worked out at 7.91 min.

Take `CCCC[C@@H]1NC(=O)[C@H](CCCCN)NC(=O)[C@H](CCCNC(=N)N)NC(=O)[C@@H](NC(=O)[C@H](Cc2ccccc2)NC(=O)[C@@H](NC(=O)[C@H](CC(N)=O)NC(=O)[C@H](CCCNC(=N)N)NC(C)=O)[C@@H](C)CC)CSSC[C@@H](C(=O)N[C@@H](CCC(=O)O)C(=O)N[C@@H](CCCNC(=N)N)C(=O)N[C@@H](CCC(N)=O)C(=O)N[C@H](C(=O)N[C@@H](CC(C)(C)C)C(=O)O)C(C)(C)C)NC1=O` [Arb_cyclic_D24, RNIFCRK(Nle)CERQ(B13)(F02)]: the half-life came out at 80.7 min.
